Source: US20090317372A1, “SMALL MOLECULES FOR THE REDUCTION OF HIGH BLOOD GLUCOSE LEVEL” (priority 2008, published 2009)

How the values were obtained:
ob/ob mice = experiment: Blood glucose in ob/ob mice, CCcompound1 combined with human proteins AGP and TF; type: in vivo
Experimental: For each experimental group, ob/ob mice were chosen (5 mice in each group) that were 43 days old and weighed on average 40.3±1.9-g on the first day of experiment. Three groups of mice were treated with s.c. injection of 4.5-mg/kg CCcompound1 once every day for 17 days. Mice in one of these CCcompound1-treated groups received no other treatment, and their blood was drawn for glucose analysis on day 14 and 17 exactly 45 min after treatment. The second CCcompound1-treated group also received 0.5-mg/mouse (˜11 mg/kg) dose of greater than 98% pure commercial human transferrin [catalogue number, T 3309 according to 2004/2005 Sigma catalogue]. In this second group the blood was drawn on day 14 just prior to TF administration and on day 17 two hours after TF and 45 min after CCcompound1 administration. An additional group of animals received only TF treatment. The third CCcompound1-treated group also received 1.2-mg/mouse (26.6-mg/kg) dose of >99% pure human AGP [catalogue number G 9885 according to 2004/2005 Sigma catalogue]; in this group the blood was drawn on day 14 just prior to AGP administration and on day 17 two hours and 45 minutes after administration of AGP and CCcompound1, respectively. An additional group of animals received only AGP treatment, and yet another group of animals received no treatment at all. On day 1, prior to any treatment, the blood glucose level of all animals was in the range of 7.2-7.9 mM.

PC-3 human tumors = experiment: PC-3 tumor/cachexia model: tumor weight and body weight; type: in vivo, mice
Experimental: The experimental PC-3 human tumors were developed in a homozygous line of C.B.-171 cr scid/scid adult female mice that were kept at specified pathogen free (SPF) hygienic level. Treatments with CCcompound1 (4.5 mg/kg) were started on day 12 after tumor implantation and conducted for 5+5 days with 2 treatment-free days inserted between the 2 series of treatments. A control group (10 mice) received no treatment, while another group (10 mice) received 4.5-mg/kg of CCcompound1 once every day between days 12-24. The results, shown in TABLE 8, indicate that between days 12 and 24 after tumor implantation, the prostate tumor caused about 6.9-g loss in lean body weight (4.1-g loss in total body weight). In contrast, animals treated with CCcompound1 actually gained 6.3-g lean body weight.

C57/BL/6 mice [1] = experiment: Glucose tolerance test with normal mice (CC1, CC3, CC19); type: in vivo
Experimental: C57/BL/6 female mice weighing 22-23-g and fasted for 14 hours before intraperitoneal (i.p.) administration of glucose (3-g/kg) were used. None of the animals received any food during the experiment other than glucose. The animals received i.p. injections of 4.5-mg/kg of CCcompound1, CCcompound3, or CCcompound19 either 1 hour or 24 hours prior to glucose administration as indicated in TABLE 3. Blood samples were taken from the eyes (canthus), and glucose concentrations in whole blood samples were immediately measured with the Fast Glucose C test. Each group included six animals. The data, shown in TABLE 3, are the mean±std. dev. of 6 determinations, i.e. one determination with each of the six animals. In this and all subsequent experiments the values at 0 min reflect glucose concentration in blood samples collected 1-5 minutes prior to the administration of glucose.

Wistar rats = experiment: Glucose tolerance test in starved rats; type: in vivo
Experimental: Male Wistar rats weighing 240-270-g were divided into 3 groups, each group consisting of 6 or 7 animals. To ensure standard conditions animals were starved for 14 hours before the start of the experiment. CCcompound1 and CCcompound3 were injected (i.p.) 30 min prior to injecting 3-g/kg of glucose (i.p.). Blood sugar values of the experimental animals were measured with the Fast Glucose C-test; blood samples were taken from the tail. The data are the mean±std. dev. of 6-7 determinations, i.e. one determination with each of the 6-7 animals in the respective groups.

C57/BL/6 mice [2] = experiment: Glucose tolerance test with normal mice, dose and time dependence of CCcompound1; type: in vivo
Experimental: Female C57/BL/6 mice weighing 22-23-g and fasted for 14 hours prior to i.p. glucose administration (3-g/kg) were used. None of the animals received any food during the experiment other than glucose. The animals received i.p. injections of 2.0 or 4.5-mg/kg of CCcompound1 either 30 min, 60 min or 120 min prior to glucose administration. Blood samples were taken and glucose concentrations were immediately measured as described earlier. Each group included six animals. The data are the mean±std. dev. of 6 determinations, i.e. one determination with each of the six animals. “-min” indicates the length of period in minutes elapsed between the administration of CCcompound1 (first) and glucose (second).

[3] = 4.5 mg/kg group, day 12 (start of treatment)
[4] = 4.5 mg/kg once daily days 12-24, day 24

In the case of `Cc1c(OCC(O)C[N+](C)(C)C)cc2c(=O)c3ccccc3sc2c1C.[Cl-]` (centres unmarked) [CCcompound 1, [3-(3,4-Dimethyl-9-oxo-9H-thioxanthen-2-yloxy)-2-hydroxypropyl]trimethyl-ammonium chloride], the Blood glucose level (ob/ob mice; 14th day, CC1 4.5-mg/kg s.c. daily, 45 min after treatment, blood drawn just prior to AGP or TF administration) is reported as 10.9 ± 0.9 mM, the Blood glucose level (ob/ob mice; 17th day, 45 min after CC1 4.5-mg/kg s.c., two hours after TF 0.5-mg/mouse or AGP 1.2-mg/mouse) is reported as 11.4 ± 0.4 mM and the “Body weight (lean)” value (PC-3 human tumors; [3]) is reported as 25.0 g. For the same compound, the Tumor weight (PC-3 human tumors; [3]) was 0.2 ± 0.1 g, the Total weight (PC-3 human tumors; 4.5 mg/kg group, day 12 after tumor transplantation (start of treatment)) was 25.2 ± 1.3 g and the “Body weight (lean)” value (PC-3 human tumors; [4]) was 30.3 g. For the same compound, the Total weight (PC-3 human tumors; [4]) was 31.9 ± 2.5 g, the Tumor weight (PC-3 human tumors; [4]) was 1.6 ± 0.4 g and the “Gain in lean body weight” value (PC-3 human tumors; 4.5 mg/kg, between days 12 and 24) was 6.3 g. For the same compound, the “Reduction of tumor volume” value (PC-3 human tumors; 4.5 mg/kg, days 12-24) was roughly 50%, the Blood glucose (C57/BL/6 mice [1]; 4.5-mg/kg i.p. 1 h prior to glucose 3-g/kg i.p., 0 min) was 1.3 ± 0.3 mM and the “Reduction of blood glucose level” value (C57/BL/6 mice [1]; 4.5-mg/kg i.p. 1 h prior to glucose, 30th min of test period) was 33%. It also gave a Blood glucose (C57/BL/6 mice [1]; 4.5-mg/kg i.p. 1 h prior to glucose, 30 min) of 5.4 ± 0.5 mM, a Blood glucose (C57/BL/6 mice [1]; 4.5-mg/kg i.p. 1 h prior to glucose, 60 min) of 4.3 ± 0.4 mM and a Blood glucose (C57/BL/6 mice [1]; 4.5-mg/kg i.p. 1 h prior to glucose, 120 min) of 2.8 ± 0.2 mM. The Blood glucose (C57/BL/6 mice [1]; 4.5-mg/kg i.p. 1 h prior to glucose, 180 min) was 2.2 ± 0.2 mM, the Blood glucose (C57/BL/6 mice [1]; 4.5-mg/kg i.p. 24 h prior to glucose, 0 min) was 1.4 ± 0.2 mM and the Blood glucose (C57/BL/6 mice [1]; 4.5-mg/kg i.p. 24 h prior to glucose, 30 min) was 7.0 ± 0.7 mM. The Blood glucose (C57/BL/6 mice [1]; 4.5-mg/kg i.p. 24 h prior to glucose, 60 min) was 5.2 ± 0.4 mM, the Blood glucose (C57/BL/6 mice [1]; 4.5-mg/kg i.p. 24 h prior to glucose, 120 min) was 3.4 ± 0.3 mM and the Blood glucose (C57/BL/6 mice [1]; 4.5-mg/kg i.p. 24 h prior to glucose, 180 min) was 2.8 ± 0.2 mM. For the same compound, the Glucose lowering effect (C57/BL/6 mice [1]; treatment 24 hours prior to glucose) was “smaller and not reproducible in additional experiments”, the Blood glucose (Wistar rats; rats starved 14 h, i.p. 30 min prior to glucose 3-g/kg i.p., 0 min) was 5.03 ± 0.44 mM and the Blood glucose (Wistar rats; rats, i.p. 30 min prior to glucose, 30 min) was 9.21 ± 0.45 mM. For the same compound, the Blood glucose (Wistar rats; rats, i.p. 30 min prior to glucose, 60 min) was 5.73 ± 0.39 mM, the Blood glucose (Wistar rats; rats, i.p. 30 min prior to glucose, 90 min) was 5.11 ± 0.42 mM and the Blood glucose (Wistar rats; rats, i.p. 30 min prior to glucose, 120 min) was 5.37 ± 0.36 mM. For the same compound, the Blood glucose (C57/BL/6 mice [2]; 2 mg/kg i.p. −30 min, 0 min) was 1.30 ± 0.20 mM, the Blood glucose (C57/BL/6 mice [2]; 2 mg/kg i.p. −30 min, 30 min) was 5.40 ± 0.45 mM and the Blood glucose (C57/BL/6 mice [2]; 2 mg/kg i.p. −30 min, 60 min) was 4.15 ± 0.45 mM. For the same compound, the Blood glucose (C57/BL/6 mice [2]; 2 mg/kg i.p. −30 min, 120 min) was 3.50 ± 0.30 mM, the Blood glucose (C57/BL/6 mice [2]; 2 mg/kg i.p. −30 min, 180 min) was 2.80 ± 0.30 mM and the Blood glucose (C57/BL/6 mice [2]; 2 mg/kg i.p. −60 min, 0 min) was 1.30 ± 0.30 mM. For the same compound, the Blood glucose (C57/BL/6 mice [2]; 2 mg/kg i.p. −60 min, 30 min) was 5.70 ± 0.35 mM, the Blood glucose (C57/BL/6 mice [2]; 2 mg/kg i.p. −60 min, 60 min) was 4.30 ± 0.30 mM and the Blood glucose (C57/BL/6 mice [2]; 2 mg/kg i.p. −60 min, 120 min) was 3.70 ± 0.30 mM. It also gave a Blood glucose (C57/BL/6 mice [2]; 2 mg/kg i.p. −60 min, 180 min) of 3.25 ± 0.35 mM, a Blood glucose (C57/BL/6 mice [2]; 4.5 mg/kg i.p. −30 min, 0 min) of 1.50 ± 0.25 mM and a Blood glucose (C57/BL/6 mice [2]; 4.5 mg/kg i.p. −30 min, 30 min) of 5.05 ± 0.20 mM. It also gave a Blood glucose (C57/BL/6 mice [2]; 4.5 mg/kg i.p. −30 min, 60 min) of 3.55 ± 0.25 mM, a Blood glucose (C57/BL/6 mice [2]; 4.5 mg/kg i.p. −30 min, 120 min) of 2.95 ± 0.25 mM and a Blood glucose (C57/BL/6 mice [2]; 4.5 mg/kg i.p. −30 min, 180 min) of 1.95 ± 0.30 mM. It also gave a Blood glucose (C57/BL/6 mice [2]; 4.5 mg/kg i.p. −60 min, 0 min) of 1.40 ± 0.25 mM, a Blood glucose (C57/BL/6 mice [2]; 4.5 mg/kg i.p. −60 min, 30 min) of 5.25 ± 0.30 mM and a Blood glucose (C57/BL/6 mice [2]; 4.5 mg/kg i.p. −60 min, 60 min) of 3.90 ± 0.20 mM. It also gave a Blood glucose (C57/BL/6 mice [2]; 4.5 mg/kg i.p. −60 min, 120 min) of 3.20 ± 0.15 mM, a Blood glucose (C57/BL/6 mice [2]; 4.5 mg/kg i.p. −60 min, 180 min) of 2.85 ± 0.15 mM and a Blood glucose (C57/BL/6 mice [2]; 4.5 mg/kg i.p. −120 min, 0 min) of 1.35 ± 0.15 mM. It also gave a Blood glucose (C57/BL/6 mice [2]; 4.5 mg/kg i.p. −120 min, 30 min) of 7.80 ± 0.40 mM, a Blood glucose (C57/BL/6 mice [2]; 4.5 mg/kg i.p. −120 min, 60 min) of 5.90 ± 0.45 mM and a Blood glucose (C57/BL/6 mice [2]; 4.5 mg/kg i.p. −120 min, 120 min) of 4.30 ± 0.40 mM. For the same compound, the Blood glucose (C57/BL/6 mice [2]; 4.5 mg/kg i.p. −120 min, 180 min) was 3.00 ± 0.20 mM and the Glucose lowering effect (C57/BL/6 mice [2]; administered 120 min prior to glucose) was “practically ineffective”.
